This passage reports IC50 results from US20240025919A1, “AZA-TETRACYCLIC OXAZEPINE COMPOUNDS AND USES THEREOF” (Genentech, Inc., priority 2022, published 2024).

SMILES strings stand for the structures. pIC50: −log10 of the molar value.

The target of one assay is KRAS G12D (Homo sapiens (Human), UniProt P01116, G12D). Kind of assay: KRAS G12D LoEnz Biochemical Assay, BODIPY-GDP Exchange TR-FRET (SOS1-mediated nucleotide exchange). As to conditions: read-out: KRas (G12D) GDP HTRF IC50. A general note: Time-resolved FRET reads energy transfer from a long-lived donor to a nearby acceptor.
The next assay addresses KRAS WT (Homo sapiens (Human), UniProt P01116). Kind of assay: KRAS WT Biochemical Assay, BODIPY-GDP Exchange TR-FRET (Example 502; 0.06 nM KRAS WT, 15 nM GDP, 300 nM SOS1, 120-minute incubation). The conditions noted are these: read-out: KRas HTRF IC50. A digest of the protocol:
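Biotin-tagged recombinant KRAS WT (0.06 nM) preloaded with 15 nM GDP and Tb-streptavidin, 10 min RT, then exchange started with 300 nM SOS1 plus 300 nM BODIPY-GDP in HEPES pH 7.5 buffer with MgCl2. TR-FRET 520/490 ratio read after 120 min; normalized to DMSO and full-inhibition control; IC50 from 4-parameter fit.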

Chain of KRAS WT (P01116-2 other isoform, or with tags, fused parts or gaps): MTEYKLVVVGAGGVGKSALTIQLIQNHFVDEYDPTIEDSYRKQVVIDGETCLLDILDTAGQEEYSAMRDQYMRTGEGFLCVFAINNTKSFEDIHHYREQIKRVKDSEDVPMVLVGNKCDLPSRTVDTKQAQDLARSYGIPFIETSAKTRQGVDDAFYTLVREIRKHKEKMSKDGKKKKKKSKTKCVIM
Chain of KRAS G12D (P01116-2 other isoform, or with tags, fused parts or gaps G12D): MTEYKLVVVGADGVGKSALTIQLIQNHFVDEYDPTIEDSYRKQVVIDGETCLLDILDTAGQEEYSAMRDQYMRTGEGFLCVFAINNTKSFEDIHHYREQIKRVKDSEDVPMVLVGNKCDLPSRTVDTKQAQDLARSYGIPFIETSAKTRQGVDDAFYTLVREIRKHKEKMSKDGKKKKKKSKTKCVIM

Take `C[C@@H]1Oc2nc(-c3cc(N)c(F)cc3C(C)(F)F)c(F)c3nc(OC[C@@]45CCCN4C[C@H](F)C5)nc(c23)N2C[C@H]3CC[C@H](N3)[C@@H]12` [Compound 73, 4-(1,1-difluoroethyl)-2-fluoro-5-((5S,5aS,6S,9R)-1-fluoro-12-(((2R,7aS)-2-fluorotetrahydro-1H-pyrrolizin-7a(5H)-yl)methoxy)-5-methyl-5a,6,7,8,9,10-hexahydro-5H-4-oxa-3,10a,11,13,14-pentaaza-6,9-methanonaphtho[1,8-ab]heptalen-2-yl)aniline]: the pIC50 (in general, −log10 of the IC50, conventionally taken in molar units) on KRAS G12D is 8.59; on KRAS WT it was 7.44.
For the molecule `Cc1c(F)c(N)cc(-c2nc3c4c(nc(OC[C@@]56CCCN5C[C@H](F)C6)nc4c2F)N2C[C@H]4CC[C@H](N4)[C@H]2[C@H](C)O3)c1Cl` [Compound 76, 4-Chloro-2-fluoro-5-((5S,5aS,6S,9R)-1-fluoro-12-(((2R,7aS)-2-fluorotetrahydro-1H-pyrrolizin-7a(5H)-yl)methoxy)-5-methyl-5a,6,7,8,9,10-hexahydro-5H-4-oxa-3,10a,11,13,14-pentaaza-6,9-methanonaphtho[1,8-ab]heptalen-2-yl)-3-methylaniline], the pIC50 was 9.89 at KRAS G12D and 7.84 at KRAS WT.
`Cc1c(F)c(N)cc(-c2nc3c4c(nc(OCC5(CN6CC(F)C6)CC5)nc4c2F)N2C[C@H]4CC[C@H](N4)[C@H]2[C@H](C)O3)c1C(F)(F)F` [Compound 173, 2-Fluoro-5-((5S,5aS,6S,9R)-1-fluoro-12-((1-((3-fluoroazetidin-1-yl)methyl)cyclopropyl)methoxy)-5-methyl-5a,6,7,8,9,10-hexahydro-5H-4-oxa-3,10a,11,13,14-pentaaza-6,9-methanonaphtho[1,8-ab]heptalene-2-yl)-3-methyl-4-(trifluoromethyl)aniline]: the results for the pIC50 on KRAS G12D and on KRAS WT were 10.10 and 8.23, respectively.
With `C[C@@H]1Oc2nc(-c3cc(N)cc(F)c3C(F)(F)F)c(F)c3nc(OCC4CCC5N4CCOC5(C)C)nc(c23)N2C[C@H]3CC[C@H](N3)[C@@H]12` (stereo partly drawn) [Compound 157, 3-((5S,5aS,6S,9R)-12-((1,1-Dimethylhexahydro-1H-pyrrolo[2,1-c][1,4]oxazin-6-yl)methoxy)-1-fluoro-5-methyl-5a,6,7,8,9,10-hexahydro-5H-4-oxa-3,10a,11,13,14-pentaaza-6,9-methanonaphtho[1,8-ab]heptalen-2-yl)-5-fluoro-4-(trifluoromethyl)aniline], the values for the pIC50 at KRAS G12D and at KRAS WT were 9.26 and 7.34, respectively.
For `Cc1c(F)c(N)cc(-c2nc3c4c(nc(OC[C@H](F)CN5CC6(COC6)C5)nc4c2F)N2C[C@H]4CC[C@H](N4)[C@H]2[C@H](C)O3)c1C(F)(F)F` [Compound 144] the same measures were 9.30 and 7.00.
For `Cc1c(F)c(N)cc(-c2nc3c4c(nc(OC[C@@]56CCCN5C[C@H](F)C6)nc4c2F)N2C[C@H]4CC[C@H](N4)[C@H]2CO3)c1C(F)(F)F` [Compound 61, 2-Fluoro-5-((5aS,6S,9R)-1-fluoro-12-(((2R,7aS)-2-fluorotetrahydro-1H-pyrrolizin-7a(5H)-yl)methoxy)-5a,6,7,8,9,10-hexahydro-5H-4-oxa-3,10a,11,13,14-pentaaza-6,9-methanonaphtho[1,8-ab]heptalen-2-yl)-3-methyl-4-(trifluoromethyl)aniline] the same measures were 9.68 and 7.52.
As to `C[C@@H]1Oc2nc(-c3cc(N)ccc3C(F)(F)F)c(F)c3nc(OC[C@@]45CCCN4C[C@H](F)C5)nc(c23)N2C[C@H]3CC[C@H](N3)[C@@H]12` [Compound 72, 3-((5S,5aS,6S,9R)-1-Fluoro-12-(((2R,7aS)-2-fluorotetrahydro-1H-pyrrolizin-7a(5H)-yl)methoxy)-5-methyl-5a,6,7,8,9,10-hexahydro-5H-4-oxa-3,10a,11,13,14-pentaaza-6,9-methanonaphtho[1,8-ab]heptalen-2-yl)-4-(trifluoromethyl)aniline], the pIC50 is 9.55 at KRAS G12D and 7.89 on KRAS WT.
Take `Cc1cc(N)cc(-c2nc3c4c(nc(OC[C@@]56CCCN5C[C@H](F)C6)nc4c2F)N2C[C@H]4CC[C@H](N4)[C@H]2[C@H](C)O3)c1Cl` [Compound 74, 4-Chloro-3-((5S,5aS,6S,9R)-1-fluoro-12-(((2R,7aS)-2-fluorotetrahydro-1H-pyrrolizin-7a(5H)-yl)methoxy)-5-methyl-5a,6,7,8,9,10-hexahydro-5H-4-oxa-3,10a,11,13,14-pentaaza-6,9-methanonaphtho[1,8-ab]heptalen-2-yl)-5-methylaniline]: the values for the pIC50 on KRAS G12D and on KRAS WT were 9.48 and 7.51, respectively.
In the case of `C=C1CN2CCC[C@@]2(COc2nc3c4c(nc(-c5cc(N)c(F)c(C)c5C(F)(F)F)c(F)c4n2)O[C@@H](C)[C@@H]2[C@@H]4CC[C@H](CN32)N4)C1` [Compound 57, 2-Fluoro-5-((5S,5aS,6S,9R)-1-fluoro-5-methyl-12-(((S)-2-methylenetetrahydro-1H-pyrrolizin-7a(5H)-yl)methoxy)-5a,6,7,8,9,10-hexahydro-5H-4-oxa-3,10a,11,13,14-pentaaza-6,9-methanonaphtho[1,8-ab]heptalen-2-yl)-3-methyl-4-(trifluoromethyl) aniline], the pIC50 at KRAS G12D was 9.80; on KRAS WT, 9.20.
As for `Cc1cc(N)cc(-c2nc3c4c(nc(OC[C@@H]5CC[C@H]6COCCN65)nc4c2F)N2C[C@H]4CC[C@H](N4)[C@H]2[C@H](C)O3)c1C(F)(F)F` [Compound 67, 3-((5S,5aS,6S,9R)-1-Fuoro-1-(((6S,8aS)-hexahydro-1H-pyrrolo[2,1-c][1,4]oxazin-6-yl)methoxy)-5-methyl-5a,6,7,8,9,10-hexahydro-5H-4-oxa-3,10a,11,13,14-pentaaza-6,9-methanonaphtho[1,8-ab]heptalen-2-yl)-5-methyl-4-(trifluoromethyl)aniline], the pIC50 was 9.77 on KRAS G12D and 8.12 on KRAS WT.
For `Cc1c(F)c(N)cc(-c2nc3c4c(nc(OC[C@@H]5CCC6CC(F)(F)CCN65)nc4c2F)N2C[C@H]4CC[C@H](N4)[C@H]2[C@H](C)O3)c1C(F)(F)F` (single isomer, unassigned) [119 (isomer 2)] the same measures were 9.43 and 7.12.
With `Cc1c(F)c(N)cc(-c2nc3c4c(nc(OC[C@@H]5CC[C@@H]6C[C@@H](C(=O)N(C)C)CCN65)nc4c2F)N2C[C@H]4CC[C@H](N4)[C@H]2[C@H](C)O3)c1C(F)(F)F` (single isomer, unassigned) [133 (isomer 1)], the figures for the pIC50 on KRAS G12D and at KRAS WT were 9.92 and 7.87, respectively.
For `C[C@@H]1Oc2nc(-c3cc(N)cc(C(F)(F)F)c3C(F)(F)F)c(F)c3nc(OC[C@@]45CCCN4C[C@H](F)C5)nc(c23)N2C[C@H]3CC[C@H](N3)[C@@H]12` [Compound 115, 3-((5S,5aS,6S,9R)-1-fluoro-12-(((2R,7aS)-2-fluorotetrahydro-1H-pyrrolizin-7a(5H)-yl)methoxy)-5-methyl-5a,6,7,8,9,10-hexahydro-5H-4-oxa-3,10a,11,13,14-pentaaza-6,9-methanonaphtho[1,8-ab]heptalen-2-yl)-4,5-bis(trifluoromethyl)aniline] the same measures were 9.41 and 7.47.
For the molecule `Cc1c(F)c(N)cc(-c2nc3c4c(nc(OC[C@@]5(CCF)CCCN5C)nc4c2F)N2C[C@H]4CC[C@H](N4)[C@H]2[C@H](C)O3)c1C(F)(F)F` (single isomer, unassigned) [127 (isomer 1)], the pIC50 is 9.85 at KRAS G12D and 7.75 at KRAS WT.
For `C[C@@H]1Oc2nc(-c3c(C#N)c(N)c(F)c(F)c3C(F)(F)F)c(F)c3nc(OC[C@@]45CCCN4C[C@H](F)C5)nc(c23)N2C[C@H]3CC[C@H](N3)[C@@H]12` [Compound 107, 2-Amino-3,4-difluoro-6-((5S,5aS,6S,9R)-1-fluoro-12-(((2R,7aS)-2-fluorotetrahydro-1H-pyrrolizin-7a(5H)-yl)methoxy)-5-methyl-5a,6,7,8,9,10-hexahydro-5H-4-oxa-3,10a,11,13,14-pentaaza-6,9-methanonaphtho[1,8-ab]heptalen-2-yl)-5-(trifluoromethyl)benzonitrile] the same measures were 8.86 and 6.78.
For the molecule `Cc1c(F)c(N)cc(-c2nc3c4c(nc(OC[C@@]56CCCN5CC5(CC5(F)F)C6)nc4c2F)N2C[C@H]4CC[C@H](N4)[C@H]2[C@H](C)O3)c1C(F)(F)F` (stereo partly drawn) [Compound 62, 5-((5S,5aS,6S,9R)-12-(((7a'S)-2,2-Difluorodihydro-1′H,3′H-spiro[cyclopropane-1,2′-pyrrolizin]-7a′(5′H)-yl)methoxy)-1-fluoro-5-methyl-5a,6,7,8,9,10-hexahydro-5H-4-oxa-3,10a,11,13,14-pentaaza[6,9]methanonaphtho[1,8-ab]heptalen-2-yl)-2-fluoro-3-methyl-4-(trifluoromethyl)aniline], the pIC50 at KRAS G12D is 10.08; at KRAS WT it was 9.54.
The matching figures for `Cc1c(F)c(N)cc(-c2nc3c4c(nc(OC[C@@H](F)CN5CC6(COC6)C5)nc4c2F)N2C[C@H]4CC[C@H](N4)[C@H]2[C@H](C)O3)c1C(F)(F)F` [Compound 145]: 9.17 and 6.77.
With `C[C@@H]1Oc2nc(-c3cc(O)cc4ccc(F)c(F)c34)c(F)c3nc(OC[C@@]45CCCN4C[C@H](F)C5)nc(c23)N2C[C@H]3CC[C@H](N3)[C@@H]12` [Compound 82, 5,6-Difluoro-4-((5S,5aS,6S,9aR)-1-fluoro-12-(((2R,7aS)-2-fluorotetrahydro-1H-pyrrolizin-7a(5H)-yl)methoxy)-5-methyl-5a,6,7,8,9,10-hexahydro-5H-4-oxa-3,10a,11,13,14-pentaaza-6,9-methanonaphtho[1,8-ab]heptalen-2-yl)naphthalen-2-ol], the figures for the pIC50 at KRAS G12D and on KRAS WT were 6.44 and 4.63, respectively.
